Measured values published in patent US10597388B2, “Pyridazinone herbicides” (FMC CORPORATION, priority 2014, dated 2020).

Tests used:
Test in all cases: Test C greenhouse herbicide test, pre- and postemergence
Format in all cases: in vivo
[1] = system: barnyardgrass (Echinochloa crus-galli)
Summary of the method: (§1)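 Visual 0–100 injury score (100 = complete control) taken against untreated controls after 13–15 d in greenhouse. Test chemicals, formulated in solvent plus surfactant, applied preemergence to seeds in loam–sand soil or postemergence to 1- to 4-leaf plants (2–18 cm).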

[2] = system: crabgrass, large (large crabgrass, Digitaria sanguinalis)
Summary of the method: as §1

[3] = system: foxtail, giant (giant foxtail, Setaria faberii)
Summary of the method: as §1

[4] = system: galium (catchweed bedstraw, Galium aparine)
Summary of the method: as §1

[5] = system: johnsongrass (Sorghum halepense)
Summary of the method: as §1

[6] = system: lambsquarters (Chenopodium album)
Summary of the method: as §1

[7] = system: nutsedge, yellow (yellow nutsedge, Cyperus esculentus)
Summary of the method: as §1

[8] = system: oilseed rape (Brassica napus)
Summary of the method: as §1

[9] = system: ragweed (common ragweed, Ambrosia elatior)
Summary of the method: as §1

soybean (Glycine max) = system: soybean (Glycine max)
Summary of the method: as §1

[10] = system: waterhemp (common waterhemp, Amaranthus rudis)
Summary of the method: as §1

[11] = system: wheat (winter wheat, Triticum aestivum)
Summary of the method: as §1

[12] = Postemergence, 31 g ai/ha, scale 0 to 100 (0 no effect, 100 complete control)
[13] = Postemergence, 62 g ai/ha, 0 to 100 scale (0 no effect, 100 complete control)
[14] = Postemergence, 125 g ai/ha, scale 0 to 100, 0 is no effect, 100 is complete control
[15] = Postemergence, 250 g ai/ha, scale 0 to 100, 0 no effect, 100 complete control, 13 to 15 d
[16] = Preemergence, 31 g ai/ha, scale 0 to 100, 0 is no effect, 100 is complete control
[17] = Preemergence, 62 g ai/ha, scale 0 to 100, 0 is no effect, 100 is complete control
[18] = Preemergence, 125 g ai/ha, scale 0 to 100, 0 is no effect, 100 is complete control
[19] = Preemergence, 250 g ai/ha, scale 0 to 100, 0 no effect, 100 complete control
[20] = postemergence, 125 g ai/ha, scale 0 to 100, 0 no effect, 100 complete control

CC(=O)Oc1c(C)nn(C)c(=O)c1-c1c(C)sc2ccc(C(F)(F)F)cc12 [Compound 132]
Plant response rating, Barnyardgrass [1, 12]: 15 | Barnyardgrass plant response rating [1, 13]: 30 | Plant response rating, Barnyardgrass [1, 14]: 25 | Plant response rating, Barnyardgrass [1, 15]: 25 | Plant response rating, Barnyardgrass [1, 16]: 0 | Plant response rating, Barnyardgrass [1, 17]: 5 | Plant response rating, Barnyardgrass [1, 18]: 35 | Barnyardgrass plant response rating [1, 19]: 45 | Plant response rating, Crabgrass, Large [2, 12]: 15 | Crabgrass, Large plant response rating [2, 13]: 15 | Plant response rating, Crabgrass, Large [2, 15]: 25 | Plant response rating, Crabgrass, Large [2, 16]: 0 | Plant response rating, Crabgrass, Large [2, 17]: 0 | Plant response rating, Crabgrass, Large [2, 18]: 10 | Crabgrass, Large plant response rating [2, 19]: 40 | Crabgrass, Large plant response rating [2, 20]: 10 | Plant response rating, Foxtail, Giant [3, 12]: 30 | Foxtail, Giant plant response rating [3, 13]: 40 | Plant response rating, Foxtail, Giant [3, 15]: 75 | Plant response rating, Foxtail, Giant [3, 16]: 40 | Plant response rating, Foxtail, Giant [3, 17]: 70 | Plant response rating, Foxtail, Giant [3, 18]: 85 | Foxtail, Giant plant response rating [3, 19]: 98 | Foxtail, Giant plant response rating [3, 20]: 60 | Plant response rating, Galium [4, 12]: 90 | Galium plant response rating [4, 13]: 95 | Plant response rating, Galium [4, 15]: 95 | Plant response rating, Galium [4, 16]: 90 | Plant response rating, Galium [4, 17]: 90 | Plant response rating, Galium [4, 18]: 90 | Galium plant response rating [4, 19]: 98 | Galium plant response rating [4, 20]: 95 | Plant response rating, Johnsongrass [5, 12]: 0 | Johnsongrass plant response rating [5, 13]: 5 | Plant response rating, Johnsongrass [5, 15]: 10 | Plant response rating, Johnsongrass [5, 16]: 15 | Plant response rating, Johnsongrass [5, 17]: 10 | Plant response rating, Johnsongrass [5, 18]: 55 | Johnsongrass plant response rating [5, 19]: 25 | Johnsongrass plant response rating [5, 20]: 5 | Plant response rating, Lambsquarters [6, 12]: 90 | Lambsquarters plant response rating [6, 13]: 90 | Plant response rating, Lambsquarters [6, 15]: 100 | Plant response rating, Lambsquarters [6, 16]: 50 | Plant response rating, Lambsquarters [6, 17]: 60 | Plant response rating, Lambsquarters [6, 18]: 85 | Lambsquarters plant response rating [6, 19]: 100 | Lambsquarters plant response rating [6, 20]: 100 | Plant response rating, Nutsedge, Yellow [7, 12]: 30 | Nutsedge, Yellow plant response rating [7, 13]: 55 | Plant response rating, Nutsedge, Yellow [7, 15]: 85 | Plant response rating, Nutsedge, Yellow [7, 16]: 10 | Plant response rating, Nutsedge, Yellow [7, 17]: 35 | Plant response rating, Nutsedge, Yellow [7, 18]: 45 | Nutsedge, Yellow plant response rating [7, 19]: 75 | Nutsedge, Yellow plant response rating [7, 20]: 75 | Plant response rating, Oilseed Rape [8, 12]: 5 | Oilseed Rape plant response rating [8, 13]: 10 | Plant response rating, Oilseed Rape [8, 15]: 40 | Plant response rating, Oilseed Rape [8, 16]: 70 | Plant response rating, Oilseed Rape [8, 17]: 85 | Plant response rating, Oilseed Rape [8, 18]: 30 | Oilseed Rape plant response rating [8, 19]: 90 | Oilseed Rape plant response rating [8, 20]: 5 | Plant response rating, Ragweed [9, 12]: 65 | Ragweed plant response rating [9, 13]: 95 | Plant response rating, Ragweed [9, 15]: 98 | Plant response rating, Ragweed [9, 16]: 70 | Plant response rating, Ragweed [9, 17]: 85 | Plant response rating, Ragweed [9, 18]: 95 | Ragweed plant response rating [9, 19]: 100 | Ragweed plant response rating [9, 20]: 95 | Plant response rating, Soybean (soybean (Glycine max); [12]): 0 | Soybean plant response rating (soybean (Glycine max); [13]): 0 | Plant response rating, Soybean (soybean (Glycine max); [15]): 20 | Plant response rating, Soybean (soybean (Glycine max); [16]): 0 | Plant response rating, Soybean (soybean (Glycine max); [17]): 0 | Plant response rating, Soybean (soybean (Glycine max); [18]): 0 | Soybean plant response rating (soybean (Glycine max); [19]): 0 | Soybean plant response rating (soybean (Glycine max); [20]): 0 | Plant response rating, Waterhemp [10, 12]: 40 | Waterhemp plant response rating [10, 13]: 60 | Plant response rating, Waterhemp [10, 15]: 75 | Plant response rating, Waterhemp [10, 16]: 90 | Plant response rating, Waterhemp [10, 17]: 85 | Plant response rating, Waterhemp [10, 18]: 95 | Waterhemp plant response rating [10, 19]: 98 | Waterhemp plant response rating [10, 20]: 80 | Plant response rating, Wheat [11, 12]: 0 | Wheat plant response rating [11, 13]: 0 | Plant response rating, Wheat [11, 15]: 0 | Plant response rating, Wheat [11, 16]: 25 | Plant response rating, Wheat [11, 17]: 40 | Plant response rating, Wheat [11, 18]: 20 | Wheat plant response rating [11, 19]: 50 | Wheat plant response rating [11, 20]: 0

CCC(=O)Oc1c(C)nn(C)c(=O)c1-c1ccc(Br)c2ccccc12 [Compound 134]
Plant response rating, Barnyardgrass [1, 12]: 10 | Barnyardgrass plant response rating [1, 13]: 20 | Plant response rating, Barnyardgrass [1, 14]: 40 | Plant response rating, Barnyardgrass [1, 15]: 55 | Plant response rating, Barnyardgrass [1, 16]: 5 | Plant response rating, Barnyardgrass [1, 17]: 40 | Plant response rating, Barnyardgrass [1, 18]: 70 | Barnyardgrass plant response rating [1, 19]: 90 | Plant response rating, Crabgrass, Large [2, 12]: 5 | Crabgrass, Large plant response rating [2, 13]: 10 | Plant response rating, Crabgrass, Large [2, 15]: 40 | Plant response rating, Crabgrass, Large [2, 16]: 5 | Plant response rating, Crabgrass, Large [2, 17]: 30 | Plant response rating, Crabgrass, Large [2, 18]: 40 | Crabgrass, Large plant response rating [2, 19]: 60 | Crabgrass, Large plant response rating [2, 20]: 15 | Plant response rating, Foxtail, Giant [3, 12]: 15 | Foxtail, Giant plant response rating [3, 13]: 25 | Plant response rating, Foxtail, Giant [3, 15]: 45 | Plant response rating, Foxtail, Giant [3, 16]: 25 | Plant response rating, Foxtail, Giant [3, 17]: 75 | Plant response rating, Foxtail, Giant [3, 18]: 70 | Foxtail, Giant plant response rating [3, 19]: 80 | Foxtail, Giant plant response rating [3, 20]: 35 | Plant response rating, Galium [4, 12]: 95 | Galium plant response rating [4, 13]: 95 | Plant response rating, Galium [4, 15]: 100 | Plant response rating, Galium [4, 16]: 100 | Plant response rating, Galium [4, 17]: 98 | Plant response rating, Galium [4, 18]: 98 | Galium plant response rating [4, 19]: 98 | Galium plant response rating [4, 20]: 100 | Plant response rating, Johnsongrass [5, 12]: 10 | Johnsongrass plant response rating [5, 13]: 10 | Plant response rating, Johnsongrass [5, 15]: 25 | Plant response rating, Johnsongrass [5, 16]: 0 | Plant response rating, Johnsongrass [5, 17]: 5 | Plant response rating, Johnsongrass [5, 18]: 5 | Johnsongrass plant response rating [5, 19]: 5 | Johnsongrass plant response rating [5, 20]: 5 | Plant response rating, Lambsquarters [6, 12]: 100 | Lambsquarters plant response rating [6, 13]: 98 | Plant response rating, Lambsquarters [6, 15]: 100 | Plant response rating, Lambsquarters [6, 16]: 75 | Plant response rating, Lambsquarters [6, 17]: 90 | Plant response rating, Lambsquarters [6, 18]: 100 | Lambsquarters plant response rating [6, 19]: 100 | Lambsquarters plant response rating [6, 20]: 100 | Plant response rating, Nutsedge, Yellow [7, 12]: 75 | Nutsedge, Yellow plant response rating [7, 13]: 80 | Plant response rating, Nutsedge, Yellow [7, 15]: 90 | Plant response rating, Nutsedge, Yellow [7, 16]: 30 | Plant response rating, Nutsedge, Yellow [7, 17]: 45 | Plant response rating, Nutsedge, Yellow [7, 18]: 95 | Nutsedge, Yellow plant response rating [7, 19]: 90 | Nutsedge, Yellow plant response rating [7, 20]: 95 | Plant response rating, Oilseed Rape [8, 12]: 95 | Oilseed Rape plant response rating [8, 13]: 100 | Plant response rating, Oilseed Rape [8, 15]: 100 | Plant response rating, Oilseed Rape [8, 16]: 55 | Plant response rating, Oilseed Rape [8, 17]: 90 | Plant response rating, Oilseed Rape [8, 18]: 90 | Oilseed Rape plant response rating [8, 19]: 98 | Oilseed Rape plant response rating [8, 20]: 100 | Plant response rating, Ragweed [9, 12]: 0 | Ragweed plant response rating [9, 13]: 5 | Plant response rating, Ragweed [9, 15]: 30 | Plant response rating, Ragweed [9, 16]: 70 | Plant response rating, Ragweed [9, 17]: 95 | Plant response rating, Ragweed [9, 18]: 95 | Ragweed plant response rating [9, 19]: 98 | Ragweed plant response rating [9, 20]: 5 | Plant response rating, Soybean (soybean (Glycine max); [12]): 75 | Soybean plant response rating (soybean (Glycine max); [13]): 70 | Plant response rating, Soybean (soybean (Glycine max); [15]): 85 | Plant response rating, Soybean (soybean (Glycine max); [16]): 40 | Plant response rating, Soybean (soybean (Glycine max); [17]): 45 | Plant response rating, Soybean (soybean (Glycine max); [18]): 65 | Soybean plant response rating (soybean (Glycine max); [19]): 75 | Soybean plant response rating (soybean (Glycine max); [20]): 70 | Plant response rating, Waterhemp [10, 12]: 98 | Waterhemp plant response rating [10, 13]: 100 | Plant response rating, Waterhemp [10, 15]: 100 | Plant response rating, Waterhemp [10, 16]: 90 | Plant response rating, Waterhemp [10, 17]: 98 | Plant response rating, Waterhemp [10, 18]: 98 | Waterhemp plant response rating [10, 19]: 100 | Waterhemp plant response rating [10, 20]: 100 | Plant response rating, Wheat [11, 12]: 30 | Wheat plant response rating [11, 13]: 50 | Plant response rating, Wheat [11, 15]: 90 | Plant response rating, Wheat [11, 16]: 0 | Plant response rating, Wheat [11, 17]: 0 | Plant response rating, Wheat [11, 18]: 15 | Wheat plant response rating [11, 19]: 40 | Wheat plant response rating [11, 20]: 65
